The test system of assay [1] is BET proteins Brd2, Brd3, Brd4. Put plainly: BET degradation profile in HeLa cells. Type of assay: cell-based. As to conditions: 24 h.
A further assay concerns the target Brd4^BD2 (Homo sapiens, UniProt O60885). Put plainly: ITC binary titration, Brd4^BD2 into PROTAC. Conditions: Brd4^BD2 in syringe, PROTAC in cell. Type of assay: binding.
In assay [2] the target is VCB / Brd4^BD2 ternary complex (Homo sapiens, UniProt O60885+P40337). Put plainly: ITC ternary titration, VCB into Brd4^BD2–PROTAC complex. Type of assay: binding. Conditions: for α: cooperativity, ratio between binary and ternary Kd; for α / ΔpKd ± uncertainty: Brd4^BD2; for cooperativity (α) Brd4–BD2: ternary complex formation with VCB and Brd4^BD2, as tabulated in Table 2; for ΔpKd ± uncertainty: ternary vs binary; for stoichiometry N / ΔG / ΔH / –TΔS: ternary, VCB in syringe, Brd4^BD2–PROTAC in cell.

Assay [3] addresses VHL-EloC-EloB protein (VCB) (Homo sapiens, UniProt P40337). Put plainly: ITC binary titration, VCB into PROTAC. Format: binding. As to conditions: VCB in syringe, PROTAC in cell.

For orientation: stoichiometry N means the number of molecules, sites or subunits per partner or assembly.

Take `CC(=O)N1c2ccc(-c3ccc(C(=O)NCCOCCOCCOCC(=O)N[C@H](C(=O)N4C[C@H](O)C[C@H]4C(=O)NCc4ccc(-c5scnc5C)cc4)C(C)(C)C)cc3)cc2[C@H](Nc2ccc(Cl)cc2)C[C@@H]1C` [compound 9, (2S,4R)-1-((S)-1-(4-((2S,4R)-1-Acetyl-4-((4-chlorophenyl)amino)-2-methyl-1,2,3,4-tetrahydroquinolin-6-yl)phenyl)-15-(tert-butyl)-1,13-dioxo-5,8,11-trioxa-2,14-diazahexadecan-16-oyl)-4-hydroxy-N-(4-(4-methylthiazol-5-yl)benzyl)pyrrolidine-2-carboxamide]: in assay [1], the “concentration with increased levels of BET proteins (hook effect)” value is 1 to 10 µM. For the same molecule, at Brd4^BD2, the “stoichiometry N” value is given as 1.15 ± 0.01, the ΔG entry is “–11.5 ± 0.3 kcal·mol^–1”, the ΔH result was “–9.74 ± 0.10 kcal·mol^–1” and the “–TΔS” value was “–1.73 ± 0.30 kcal·mol^–1”. In assay [2], the α worked out at 0.5, the “cooperativity (α) Brd4–BD2” value turned out to be 0.46, the “ΔpKd ± uncertainty” value is “–0.34 ± 0.12” and the “stoichiometry N” value is 1.44 ± 0.02. Besides, in assay [2], the ΔG entry is reported as “–9.06 ± 0.09 kcal·mol^–1”, the ΔH entry is listed as “–6.90 ± 0.11 kcal·mol^–1” and the “–TΔS” value is “–2.16 ± 0.14 kcal·mol^–1”. In assay [3], the “stoichiometry N” value turned out to be 0.96 ± 0.01, the ΔG entry is given as “–9.52 ± 0.13 kcal·mol^–1”, the ΔH entry is reported as “–6.18 ± 0.12 kcal·mol^–1” and the “–TΔS” value is listed as “–3.34 ± 0.18 kcal·mol^–1”.
With `Cc1ncsc1-c1ccc(CNC(=O)[C@@H]2C[C@@H](O)CN2C(=O)[C@@H](NC(=O)COCCOCCNC(=O)C[C@@H]2N=C(c3ccc(Cl)cc3)c3c(sc(C)c3C)-n3c(C)nnc32)C(C)(C)C)cc1` [compound 5, (2S,4R)-1-((S)-2-(tert-Butyl)-14-((S)-4-(4-chlorophenyl)-2,3,9-trimethyl-6H-thieno[3,2-f][1,2,4]triazolo[4,3-a][1,4]diazepin-6-yl)-4,13-dioxo-6,9-dioxa-3,12-diazatetradecanoyl)-4-hydroxy-N-(4-(4-methylthiazol-5-yl)benzyl)pyrrolidine-2-carboxamide], at Brd4^BD2, the “stoichiometry N” value is reported as 0.81 ± 0.04, the ΔG entry is “–10.6 ± 0.06 kcal·mol^–1” and the ΔH result is on record as “–11.2 ± 0.04 kcal·mol^–1”. In assay [2], the α was 5.7, the “cooperativity (α) Brd4–BD2” value is on record as 5.7, the “ΔpKd ± uncertainty” value came to 0.78 ± 0.16 and the “stoichiometry N” value is on record as 0.76 ± 0.06. Also, in assay [2], the ΔG result is “–10.4 ± 0.2 kcal·mol^–1”, the ΔH entry is given as “–5.36 ± 0.77 kcal·mol^–1” and the “–TΔS” value is recorded as “–5.05 ± 0.62 kcal·mol^–1”. For the same molecule, in assay [3], the “stoichiometry N” value is recorded as 0.8 ± 0.05, the ΔG result is listed as “–9.34 ± 0.10 kcal·mol^–1”, the ΔH entry is listed as “–5.72 ± 0.47 kcal·mol^–1” and the “–TΔS” value is listed as “–3.61 ± 0.37 kcal·mol^–1”.
